# System: Plasmodium falciparum
# Assay: Antiplasmodial activity against Plasmodium falciparum 3D7 infected in human erythrocytes after 48 hrs by [3H]hypoxanthine incorporation assay
# Format: functional, organism-based
row,SMILES,IC50
1,COC(=O)C1Cc2c([nH]c3ccccc23)C(c2c(CO)cnc(C)c2O)N1 (stereo not given),14 µM
2,COC(=O)[C@@H]1Cc2c([nH]c3ccccc23)[C@@H](c2c(CO)cnc(C)c2O)N1,22 µM
3,COC(=O)[C@H]1Cc2c([nH]c3ccccc23)[C@H](c2c(CO)cnc(C)c2O)N1,8 µM

# More lines, in order of falling IC50, values ahead:
row,IC50,SMILES
1,108 µM,COC(=O)[C@H]1Cc2c([nH]c3ccccc23)[C@@H](c2c(CO)cnc(C)c2O)N1
2,91 µM,COC(=O)[C@@H]1Cc2c([nH]c3ccccc23)[C@H](c2c(CO)cnc(C)c2O)N1

# From ChEMBL document CHEMBL3124773, “Stereoselective preparation of pyridoxal 1,2,3,4-tetrahydro-β-carboline derivatives and the influence of their absolute and relative configuration on the proliferation of the malaria parasite Plasmodium falciparum” (Bioorg Med Chem, 2014)
